According to ChEMBL document CHEMBL1151337, “New tertiary alkaloids of Strychnos decussata” (J Nat Prod, 1980):

Assays:
Mus musculus = experiment: Toxicity in ip dosed NMRI mouse assessed as clonic and tonic convulsions assessed as cunvulsive dose; assay type: organism-based; conditions: in vivo
[1] = Toxicity in ip dosed NMRI mouse assessed as clonic and tonic convulsions; assay type: organism-based; conditions: in vivo

Compound | Activity (Mus musculus) [mg/kg] | LD50 [1] [mg/kg]
C/C=C1\[C@@H]2C[C@H]3c4c(c5cc(O)ccc5n4[C@@H](C2)O[C@H]1OC)CCN3C | 84 | 84
C/C=C(/C=O)[C@H]1C[C@H](OC)n2c3c(c4cc(O)ccc42)CCN(C)[C@H]3C1 | 75 | 75
C/C=C1\[C@@H]2C[C@H]3c4c(c5cc(O)ccc5n4[C@@H](C2)O[C@@H]1OC)CCN3C | 80 | 90
C/C=C(/C=O)[C@H]1C[C@H](OC)n2c3c(c4ccccc42)CCN(C)[C@H]3C1 | 45.3 | –
C/C=C(/C=O)[C@@H]1C[C@H]2c3c(c4ccccc4n3[C@@H](O)C1)CCN2C [AKAGERINE] | 50 | –
